Test results as given in US20260139017A1, “COMPOSITIONS AND METHODS USING REELIN IN ALZHEIMER'S DISEASE” (The General Hospital Corporation, priority 2022, published 2026).
pKd: −log10 of the molar value. Entries after “also recorded” stand apart in the source; their conditions may differ.

Columns and labels:
[1] = Surface plasmon resonance (SPR) binding of CTR-RELN peptides to heparin-coated chip; conditions: SPR kinetic constants
Method: Surface plasmon resonance assay (SPR) was used for performing binding kinetics using a Biacore 3000 Instrument (GE Healthcare) at 25° C. following previously published protocols (7 24) as fee-for-service by Precision Antibody (Maryland, USA). Biotin-labeled heparin (B9806, Sigma Aldrich) was covalently linked to streptavidin-coated chip and unoccupied sites were blocked with biocytin. Antigen was flowed over the chip using a range of single analyte concentrations prepared in DPBS buffer and using a flow rate of 30 μL/min. Binding of antigen to the ligand was monitored in real time to obtain on (ka) and off (kd) rates. The equilibrium constant (KD) was calculated from the observed ka and kd. Accuracy of the SPR analysis was determined via Chi square (χ2) analysis as described in the statistical analysis section. We included in the analyses the WT and H3447R peptides and peptides with the hypothetical H3447D change ([…])(SEQ ID NO:57) and the H3447K change ([…])(SEQ ID NO:58), also produced and purified by Innovagen (Sweden).
Surface plasmon resonance assay (SPR) was used for performing binding kinetics using a Biacore 3000 Instrument (GE Healthcare) at 25° C. following previously published protocols 34 24 fee-for-service by Precision Antibody (Maryland, USA). Heparin was covalently linked to streptavidin coated chip at 13 response units (RU) concentration and unoccupied sites were blocked with biocytin. Antigen was flowed over the chip using a range of single analyte concentrations prepared in DPBS buffer and using a flow rate of 30 μL/min. Binding of antigen to the ligand was monitored in real time to obtain on (ka) and off (kd) rates. The equilibrium constant (KD) was calculated from the observed ka and kd. Accuracy of the SPR analysis was determined via Chi square (2) analysis as described in the statistical analysis section.

[2] = Heparin HPLC, peak retention time in KCl elution; type: binding; conditions: isocratic 1M KCl elution, long and short peptides
Method: […] 50 μl of 0.3 μg/μL uncleaved or cleaved WT Reelin peptide was used at 0.3 ml/min in 0.15MKCl, 10 mM PBS. 0-13.5 min: 0.15M KCl to load sample, 13.5-14.5 min: ramp to 0.5M KCl, 14.5-24.5 min: 0.5-1M KCl gradient (ramp), 24.5-45 min: 1M KCl (isocratic elution), 45-55 min: 1M KCl at 0.6 ml/min (wash), 55.0-56.0 min: ramp to 0.15M KCl at 0.3 ml/min, 56.0-59.0 min: 0.15M KCl (reset column). Fluorescence Intensities were measured at an excitation wavelength of 260 nm and emission wavelength of 290 nm, based on fluorescence properties of aromatic amino acids. To assess fluorescence properties of peptides, 15 ul of ˜0.6 ug/mL of peptide was diluted in 500 μL of 0.15MKCl, 10 mM PBS, and peak excitation and emission of peptides was calculated from the 2D graphical data.
The column chromatography method was adapted from previous research from the laboratory (2). Based on the column chromatography data, the initial protocol used a NaCl gradient from 0-1 M and a 5M salt wash to reset the HPLC column. However, the high salt gradient was corrosive to the HPLC machine parts. Therefore, KCl was considered because the […]. A lower molar concentration of a buffer with KCl could be used to disrupt heparin—Reelin CTR interactions compared to NaCl to help keep the HPLC pumps free of residual salts and potential corrosion. Since a lower concentration of salt was used, the amount of time needed at an […] hold of 1M KCl was extended until the peptide signal could not be detected before the column was equilibrated for the next sample.

[3] = biological target: T1, Aβ42 (Homo sapiens, UniProt P05067); test: Thioflavin T (ThT) Aβ aggregation assay; type: biochemical; conditions: Aβ42 55 μM, 10 μM peptide; vs Aβ alone
T1 construct: SensoLyte ThT O-Amyloid (1-42) Aggregation kit
T1 sequence (P05067 672-713 limits assumed): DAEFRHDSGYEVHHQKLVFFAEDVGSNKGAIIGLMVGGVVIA
Method: Therefore, the ThT assay can be used to quantify AB aggregation using previously developed methods (40).
We incubated CTR-RELN with Aβ and monitored aggregation using a ThioflavinT fluorescence assay normalized to the maximum ThT emission of Aβ only. We also assayed Aβ in the presence of morin, a known inhibitor (41), as a […]. Long and short WT and H3447R RELN CTR peptides were included to better understand the potential role of the H3447R mutation in amyloid pathology (FIGS. 14 and 15. Negative controls included long and short RELN CTR peptides with neutrally charged AAs (histidines) in place of basic AAs in the alpha- and beta-GAG binding sites.
A Thioflavin T (ThT) assay was also performed using synthetic Reelin peptides to assess the differential effects of these proteins on Aβ42 aggregation in vitro using Thioflavin T (SensoLyte ThT O-Amyloid (1-42) Aggregation kit, catalog no. ΔS-72214). Aβ42 was added to a final concentration of 55 μM in solutions of 10 μM of Reelin peptide variants in a transparent, no-binding 96-well plate. Samples were then mixed with 2 mM Thioflavin T dye and fluorescence was read at excitation wavelength/emission wavelength (Ex/Em)=440/484 nm at intermittent time intervals over 2 h. The plate was kept at 37° C. with 15 s shaking between reads. […] In general, it appears that the RELN Cterm domain is highly unstructured. […] If the mini-RELN includes the C-term domain only without a receptor binding domain then the protection will not involve signaling, but will still involve direct interactions with tau. If the mini-RELN includes the C-term domain and the receptor binding domain, it will have at least two protective mechanisms, namely RELN signaling and direct interactions with tau.

[4] = biological target: T2, NRP1 (Homo sapiens, UniProt O14786); test: Bio-layer interferometry (BLI) of CTR-RELN-NRP-1 interactions; type: binding
T2 construct: purchased R&D 3870-N1-025
T2 sequence (O14786 22-644 isoform O14786-2 limits assumed): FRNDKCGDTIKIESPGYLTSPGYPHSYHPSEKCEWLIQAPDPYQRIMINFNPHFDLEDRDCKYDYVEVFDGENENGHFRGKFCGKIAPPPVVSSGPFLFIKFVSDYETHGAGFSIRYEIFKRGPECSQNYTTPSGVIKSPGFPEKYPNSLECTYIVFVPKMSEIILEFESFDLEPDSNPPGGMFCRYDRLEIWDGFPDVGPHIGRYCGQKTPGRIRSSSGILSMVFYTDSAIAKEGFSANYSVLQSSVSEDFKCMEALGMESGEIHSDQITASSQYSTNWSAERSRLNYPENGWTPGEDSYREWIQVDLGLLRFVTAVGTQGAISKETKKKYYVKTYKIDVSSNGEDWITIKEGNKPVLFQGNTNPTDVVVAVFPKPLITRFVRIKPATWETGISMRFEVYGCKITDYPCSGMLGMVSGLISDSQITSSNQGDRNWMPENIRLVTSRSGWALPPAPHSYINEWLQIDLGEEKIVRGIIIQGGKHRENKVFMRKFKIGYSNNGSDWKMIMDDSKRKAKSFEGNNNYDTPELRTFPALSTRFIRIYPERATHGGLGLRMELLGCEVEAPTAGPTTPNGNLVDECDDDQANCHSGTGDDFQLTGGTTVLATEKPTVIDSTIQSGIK
Method: (§1) Bio-layer interferometry (BLI) was additionally used to assess NRP1-protein kinetics at 30° C. and 1000 rpm agitation. 1 mg/mL NRP1 (R&D 3870-N1-025) was biotinylated at a 1:2 molar ratio, desalted, and immobilized on the SA biosensor tip (Pall ForteBio) surface. This was followed by 1) 180 seconds baseline buffer diluent, 2) loading of the ligand (NRP1), 3) 180 seconds baseline buffer diluent, 4) 240 seconds association (analyte), and 5) 300 seconds disassociation in assay buffer. Assay buffer: SD Buffer (pH7.4 PBS, 0.05% tween20, 0.01% BSA).
The experimental data were fit with the 1:1 binding model and analyzed with global fitting using Octet Data Analysis software to calculate KD.
as §1, with “was” for “was additionally”, “agitation using previously published methods.” for “agitation.”

[5] = biological target: T3, APOER2 (Homo sapiens, UniProt Q14114); test: ELISA cell-free binding of RELN variants to ApoEr2
T3 construct: purchased OnGene (so in the source)
T3 sequence (Q14114 33-963): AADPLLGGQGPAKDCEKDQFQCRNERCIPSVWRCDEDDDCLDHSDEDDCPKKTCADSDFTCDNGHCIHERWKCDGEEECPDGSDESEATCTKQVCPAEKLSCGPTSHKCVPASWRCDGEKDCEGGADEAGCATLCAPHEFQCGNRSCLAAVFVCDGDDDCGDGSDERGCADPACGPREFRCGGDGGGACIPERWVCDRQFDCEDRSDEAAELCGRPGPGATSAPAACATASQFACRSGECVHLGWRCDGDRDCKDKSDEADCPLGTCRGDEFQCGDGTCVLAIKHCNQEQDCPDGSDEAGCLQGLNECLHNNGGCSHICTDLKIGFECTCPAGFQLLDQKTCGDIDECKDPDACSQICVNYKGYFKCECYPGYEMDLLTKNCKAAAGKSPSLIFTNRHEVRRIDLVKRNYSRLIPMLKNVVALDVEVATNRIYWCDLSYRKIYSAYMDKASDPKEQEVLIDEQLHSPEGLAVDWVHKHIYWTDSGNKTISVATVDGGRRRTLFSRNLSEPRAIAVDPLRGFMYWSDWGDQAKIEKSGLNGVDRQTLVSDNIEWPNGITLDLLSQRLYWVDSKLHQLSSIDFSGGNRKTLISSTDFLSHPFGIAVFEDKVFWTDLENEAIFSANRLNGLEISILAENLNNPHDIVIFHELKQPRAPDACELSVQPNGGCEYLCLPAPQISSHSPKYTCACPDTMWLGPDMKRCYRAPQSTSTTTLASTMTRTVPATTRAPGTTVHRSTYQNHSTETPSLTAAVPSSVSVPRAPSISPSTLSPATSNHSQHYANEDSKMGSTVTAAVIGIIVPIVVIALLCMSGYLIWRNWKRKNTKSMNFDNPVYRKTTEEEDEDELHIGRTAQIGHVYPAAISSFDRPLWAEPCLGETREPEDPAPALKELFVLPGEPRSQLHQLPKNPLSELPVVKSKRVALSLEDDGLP
Method: (§2) Enzyme-linked immunosorbent assay (ELISA) was used to quantify changes in binding of RELN variants (media-derived full-length or CTR-RELN) to either VLDLr or ApoEr2 following an optimized version of a previously published protocol (6). Briefly, ELISA strips (DY008, R&D Systems) were coated with one ng/μL (100 μL/well) of VLDLr (8444-VL, R&D) or ApoEr2 (TP320903, OnGene) receptors diluted in 25 mM Tris HCl, 140 mM NaCl, […], two mM CaCl2), pH 7.4 (TBS-C buffer). After 18 h at four ° C. incubation, plates were blocked one h with three % BSA (22070008-6, Bioworld), 0.05% Tween-20 (Sigma Aldrich) TBS-C buffer. We assessed binding via incubation with 100 μL/well of serial dilutions of recombinant RELN protein (Ser1221-Gln2666, 8546-MR-050, R&D) or RELN variants in TBS-C buffer for one hour at room temperature. For detection, we used goat anti-mouse RELN primary antibody (LS-C793521-100, LS-Bio, 1:2,000, 100 μL/well) as primary antibody for one h at R.T. and (1:10,000; 100 μL/well, donkey anti-goat IgG H&L, HRP, ab6885, Abcam) as secondary antibody for 30 min. at R.T. Between each of the previous steps, plates were washed four times with TBS-C buffer (200 μL/well). Plates were washed three times prior to initiating the colorimetric reaction (DY008, R&D Systems). Stop solution (50 μL/well, DY008, R&D Systems) was added upon five min. incubation and the absorbance of the samples was measured at 450 nm using the Synergy 2 microplate reader (BioTek Instruments). Processing and analysis of the data was done using Gen5 1.11 software and GraphPad Prism, respectively.

[6] = biological target: T4, VLDLr (Homo sapiens, UniProt P98155); test: ELISA cell-free binding of RELN variants to VLDLr
T4 construct: purchased R&D 8444-VL
Method: as §2

Which “heparin affinity/interaction relative to WT, in words” value [1] does the source give for “RKQNYMMNFSRQHGLRKFYNRRRRSLRRYP [H3447K long]” here?
The value was “minimal effects”.

What about the “peak retention time on heparin HPLC” value [2] of the same substance?
Its value is “increased later peak retention times”.

And the “Aβ aggregation (ThT fluorescence)” value [3]?
The value was “similarly decrease aggregation”.

Which “heparin affinity/interaction relative to WT, in words” value [1] does the source give for “RKQNYMMNFSRQHGLRDFYNRRRRSLRRYP [H3447D long]” here?
The value was “reduced heparin interactions”.

What about the “peak retention time on heparin HPLC” value [2] of the same substance?
The value was “significantly less interaction; also recorded: earlier peak retention time”.

What about the “Aβ aggregation (ThT fluorescence)” value [3] of the same substance?
The value was “similarly decrease aggregation”.

Which results are given for “Vascular endothelial growth factor [VEGF, reference compound]”?
ka ([4]; immobilized biotinylated NRP1): 272000 M⁻¹ s⁻¹; kd ([4]; immobilized biotinylated NRP1): 0.0015 s⁻¹; pKd ([4]; immobilized biotinylated NRP1, 30° C., 1:1 model): 8.26

What does the source list for “RELN WT: full-length murine recombinant RELN, wild type”?
binding to APOER2 [5]: did not differ; binding to VLDLr [6]: did not differ
